Laboratory results: article PMC6571972 (Pharmaceutics, 2019)
Where two headings read alike, the source gives them in different places.

Experiments:
[1] = test system: AtT20/D16v-F2 murine pituitary tumor cells; test: in vitro cytotoxicity, MTT assay; assay type: cell-based
Procedure: In vitro cytotoxicity: To evaluate the cytotoxicity of conjugates and metabolites, AtT20/D16v-F2 murine pituitary tumor cells obtained from American Type Culture Collection (ATCC, Bethesda, MD, USA) were used. Cell viability was determined using the MTT (3-(4,5-dimethyl thiaz ol-2-yl)-2,5-diphenyltetrazolium bromide) assay. Briefly, cells in DMEM supplemented with 10% FBS, 1% L-glutamine, and 1% penicillin/streptomycin were seeded in 96-well culture plates (3000 cells/well) and incubated overnight in a humidified, 37 °C, 5% CO2 atmosphere to allow for adherence. The following day, cells were treated with serial dilutions of each compound starting at 100 nM for free drugs and 1000 nM for each one of the conjugates and incubated as described for 2 h. 0.1% DMSO served as a control. After incubation, the cells were washed once, media replaced, and incubation continued for further 70 h. At the end of treatment, 5 µL of MTT solution (5 mg/mL in deionized H2O, Sigma #M5655) was added to each well and the cells were incubated for another 2 h. Finally, 100 µL of lysis buffer (10% SDS, 10 mM HCl) was added, and the cells were placed in the incubator overnight for the formazan crystal solubilization. Absorbance at 540 nm was measured using a FLUOstar Omega (BMG Labtech) microplate reader and the growth inhibition ratio was calculated. Blank controls detecting cell-free media absorbance were performed in parallel. Three experimental replicates were used. The half-maximal inhibitory concentration values (IC50) were obtained from viability curves while using GraphPad Prism 6. Cell viability was expressed as percentage relative to the respective control conditions.

[2] = mouse; cited from earlier work
[3] = cited from earlier work
human SSTR2 = biological target: T1, human SSTR2 (Homo sapiens, UniProt P30874); test: radioligand binding competition assay with SSTR2 membrane extract; conditions: competition with 3-[125I] iodotyrosyl11 Somatostatin 14, CHO-K1-SST2 membranes; for IC50: read-out: Binding Affinity (IC50 in nM)
T1 construct: membrane extract (recombinant CHO-K1-SST2 (NP_001041.1), 25 µL, 0.2 µg); expressed in transfected cells; host or cells: CHO-K1
Procedure: The dilution of test compound (50 µL, maximum final DMSO concentration 3%), radioligand 3-[125I] iodotyrosyl11 Somatostatin 14 (Perkin Elmer, NEX389, 25 µL, 0.4 nM), and membrane extract (recombinant CHO-K1-SST2 (NP_001041.1), 25 µL, 0.2 µg) were successively added to a 96-well plate and then incubated at 25 °C for 60 min. It was filtered over GF/B Unifilter plate (Perkin Elmer, 6005177, pre-soaked in 0.5% PEI for 2 h at room temperature) with a Filtermate Harvester (Perkin Elmer). After rinsing the filters six times with 0.5 mL of ice-cold washing buffer (25 mM HEPES pH 7.4, 5 mM MgCl2, 1 mM CaCl2), 50 µL of Microscint 20 (Packard) was added to the filters and the samples were incubated 15 min on an orbital shaker and then counted with a TopCount™ for 1 min/well. The binding affinity was determined in duplicates by plotting the dose-response data to a nonlinear regression with variable slope.

[4] = plasma stability in murine plasma; assay type: in vitro ADME; conditions: mouse, 37 °C, read-out: Plasma Stability (t1/2 in h) Murine (converted)
Procedure: (§1) Plasma stability: The sample preparation and the metabolic analysis of the conjugates was carried out similarly to the previously described method. Shortly, in a 96-well plate each conjugate and the control compound, procaine (3 mM, stock solution in DMSO) in three replicates were diluted with 250 μL of plasma to give a 3 µM concentration and then incubated at 37 °C. At each sample collecting time point, an aliquot of 30 µL was transferred into a 96-deep well plate and the reaction was stopped with 120 µL of acetonitrile containing 0.1% formic acid and 0.4 µg/mL of warfarin as the internal standard (IS). This mixture was centrifuged at 1100 ×g for 30 min at 4 °C and 50 µL of supernatant was transferred into a clean 96 deep-well plate and diluted with 50 µL of 0.1% formic acid in water. The samples were stored at -80 °C until analyses. Stability was determined based on LC-HRMS analysis of the disappearance of the compound as a function of incubation time, while using area ratio (analyte peak area vs internal standard peak area). The elimination constant k is calculated by plotting mean disappearance values on a semi-logarithmic scale and fitting with a best fit linear regression. The half-life (t1/2) expressed in hours is derived using the equation: t1/2 = ln2/(−k).

[5] = plasma stability in human plasma; assay type: in vitro ADME; conditions: 37 °C, read-out: Plasma Stability (t1/2 in h) Human (converted)
Procedure: as §1

AtT20 tumors = test: in vivo antitumor efficacy; set-up: species or system BALB/c nude mice; conditions: 5 mg/kg i.v. once weekly for three weeks, AtT20 tumor-bearing mice
Procedure: (§2) Figure S1. Confocal microscopy images from conjugate 10 in SSTR2 positive cell line […]
(§3) Animal experiments were approved by the Committee for Animal Experiments of the […]
(§4) For in vivo tumor targeting and antitumor efficacy experiments, three million AtT20/D16v-F2 murine pituitary tumor cells in 100 µL PBS/Matrigel (v/v) were xenografted in the right flank of four-weeks-old female BALB/c nude mice (BALB/cAnNRj-Foxn1nu/nu, Janvier Labs). The experiments started around 15 days after implantation, when the animals started to show physical signs of the hormone releasing […]
In vivo antitumor efficacy
Animals bearing AtT20 tumors were randomized in three treatment groups (n=9) and injected intravenously with 5 mg/kg of conjugate 8 in 2% DMSO in water or a mix of […]
Treatment was given once a week for a total of three weeks. Vehicle treatment was used as control. Mice were weighed, and the tumor sizes were monitored with an electronic caliper. Tumor volume was calculated using the ellipsoid formula ν = π/6ꞏxꞏyꞏz.
Figure S2. In vivo antitumor efficacy of conjugate 8 compared to vehicle and unconjugated mix of cryptophycin and octreotide (left), and body weight quantification during treatment (right). […]

in vivo = conditions: mouse
Excerpt: Dose escalation experiments determined the maximum tolerated dose of the conjugate.

[6] = pharmacokinetics after i.v. injection; assay type: in vivo; conditions: 2.5 mg/kg i.v., heterozygous NCR mice
Procedure: Pharmacokinetics: To evaluate the pharmacokinetic profile of conjugate 8 and its fluorescence-labeled analogue 10, four-weeks-old female heterozygous NCR mice from Charles River were used. Animals were intravenously injected with 2.5 mg/kg (in 2% DMSO in water, dosed at 0.5 mg/mL) of each conjugate. Terminal blood samples were collected via cardiac puncture from animals under deep anesthesia at different time points (5, 15, 30, 60, 180, and 360 min, n = 3). The samples were rapidly transferred to lithium heparin-coated tubes, kept on ice, and subsequently centrifuged at 2000 ×g, 4 °C for 10 min. After centrifugation, plasma was collected and the samples were kept at -20 °C until analyses.

cathepsin B degradation = assay type: in vitro ADME, bovine; conditions: acetate buffer/EDTA/L-cysteine without enzyme; acetate buffer pH 5.5/EDTA/L-cysteine, 37 °C, after 6 h; read-out: compound remaining in buffer in the absence of enzyme
Procedure: (§5) Cathepsin B degradation: An aqueous solution of L-cysteine (0.28 M) was diluted 1:10 in acetate buffer/EDTA 1 mM pH 5.5, to achieve a working solution of 28 mM of L-cysteine. This solution was used to dilute cathepsin B from bovine spleen (Sigma Aldrich, C6286) to 1.11 U/mL. The cathepsin B solution was pre-incubated at 37 °C for 15 min and then split into 45 µL aliquots in Eppendorf tubes, with two replicates for each incubation time. 5 µL of substrate solution (50 µM in MeOH/H2O (1:1)) were added to each tube for a final concentration of 5 µM. Tubes corresponding to t0 contained 100 µL of 1% HCOOH in MeOH and they were put in an ice bath to inhibit the reaction. All of the other tubes were incubated at 37 °C in an oscillating thermostatic bath and the reaction was stopped at the following incubation times: 0.25, 0.5, 1, 2, 4, and 6 h, as described for the t0 samples. The samples were then centrifuged for 10 min at 14000 rpm at 4 °C and filtered through regenerated cellulose syringe filters prior to injection in the HPLC-ESI-MS system. Control solutions containing 5 µM substrate in acetate buffer pH 5.5/EDTA 1 mM/L-cysteine 28 mM were also prepared and then incubated up to 6 h at 37 °C in the absence of the enzyme to check the substrate stability under incubation conditions. Substrates and their possible cleavage products (Gly-Pro-Cry-55gly, Cry-55gly, and Cry-55) were quantified via calibration curves that were prepared in acetate buffer/EDTA/L-cysteine in the range 25–5000 nM.

[7] = biological target: T2, cathepsin B from bovine spleen (Bos taurus, UniProt P07688); test: cathepsin B degradation; assay type: in vitro ADME; conditions: cathepsin B 1 U/mL
T2 construct: cathepsin B from bovine spleen (Sigma Aldrich, C6286); purchased Sigma Aldrich C6286; host or cells: bovine spleen (tissue-derived)
Procedure: as §5

AtT20 cells = test: live cell confocal microscopy, conjugate internalization in AtT20 cells; assay type: cell-based, murine
A549 cells = test: live cell confocal microscopy, conjugate internalization in A549 cells; assay type: cell-based, human; conditions: A549 cells with low levels of SSTR2, 1 µM
AtT20 xenografts = test: in vivo tumor targeting, whole body imaging; set-up: species or system nude mice; conditions: 1 mg/kg i.v.
Procedure: Tumor targeting studies: The fluorescence-labeled conjugate 10 (1 mg/kg in 2% DMSO in water) was intravenously injected in nude mice bearing AtT20 tumors. At each time point, whole body imaging was acquired using the Lago optical imaging system (Spectral Instruments Imaging), while mice were under isoflurane anesthesia (2.5%/20% O2).
as §2, §3, §4

[8] = 2 h treatment, wash, further 70 h, MTT, read-out: Cytotoxicity in AtT20 (IC50 in nM)

T1 sequence (P30874 whole entry): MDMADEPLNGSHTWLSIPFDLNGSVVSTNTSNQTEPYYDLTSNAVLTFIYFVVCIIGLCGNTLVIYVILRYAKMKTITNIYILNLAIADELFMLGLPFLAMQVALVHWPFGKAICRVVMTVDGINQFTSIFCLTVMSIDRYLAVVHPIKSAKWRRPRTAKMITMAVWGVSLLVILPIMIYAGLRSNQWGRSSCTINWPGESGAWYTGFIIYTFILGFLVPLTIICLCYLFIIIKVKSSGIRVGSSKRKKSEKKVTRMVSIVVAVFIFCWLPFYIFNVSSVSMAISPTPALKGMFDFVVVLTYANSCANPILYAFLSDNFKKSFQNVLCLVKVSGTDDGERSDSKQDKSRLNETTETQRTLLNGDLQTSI

COc1ccc(C[C@H]2NC(=O)/C=C/C[C@@H]([C@H](C)[C@@H](OC(=O)CNC(=O)[C@@H]3CCCN3C(=O)CN)[C@@H](Cl)c3ccccc3)OC(=O)[C@H](CC(C)C)OC(=O)C(C)(C)CNC2=O)cc1Cl [Gly-Pro-Cry-55gly]
IC50 ([1]; Mus musculus, AtT20, 2 h treatment, wash, further 70 h, MTT, read-out: Cytotoxicity in AtT20 (IC50 in nM)): 6.05 nM

COc1ccc(C[C@H]2NC(=O)/C=C/C[C@@H]([C@H](C)[C@@H](OC(=O)CN)[C@@H](Cl)c3ccccc3)OC(=O)[C@H](CC(C)C)OC(=O)C(C)(C)CNC2=O)cc1Cl [compound 3, cryptophycin-55 glycinate]
Plasma Stability (t1/2 in h) Murine [2]: > 24 [48] h
IC50 ([1]; Mus musculus, AtT20, read-out: Cytotoxicity in AtT20 (IC50 in nM)): 3.53 nM
Plasma Stability (t1/2 in h) Human [3]: > 24 [48] h

COc1ccc(C[C@H]2NC(=O)/C=C/C[C@@H]([C@H](C)[C@@H](OC(=O)CNC(=O)CNC(=O)[C@@H]3CCCN3C(=O)[C@H](CCCNC(N)=O)NC(=O)[C@@H](NC(=O)CCOCCOCCOCCOCCn3cc(CCC(=O)N[C@H](Cc4ccccc4)C(=O)N[C@H]4CSSC[C@@H](C(=O)N[C@H](CO)[C@@H](C)O)NC(=O)[C@H]([C@@H](C)O)NC(=O)[C@H](CCCCN)NC(=O)[C@@H](Cc5c[nH]c6ccccc56)NC(=O)[C@H](Cc5ccccc5)NC4=O)nn3)C(C)C)[C@@H](Cl)c3ccccc3)OC(=O)[C@H](CC(C)C)OC(=O)C(C)(C)CNC2=O)cc1Cl [compound 7]
IC50 (human SSTR2): 0.6 nM
half-life at 3 µM [4]: 0.5 h
IC50 [1, 8]: 51.2 nM
half-life at 3 µM [5]: 23 h

COc1ccc(C[C@H]2NC(=O)/C=C/C[C@@H]([C@H](C)[C@@H](OC(=O)CNC(=O)[C@@H]3CCCN3C(=O)CNC(=O)[C@H](CCCNC(N)=O)NC(=O)[C@@H](NC(=O)CCOCCOCCOCCOCCn3cc(CCC(=O)N[C@H](Cc4ccccc4)C(=O)N[C@H]4CSSC[C@@H](C(=O)N[C@H](CO)[C@@H](C)O)NC(=O)[C@H]([C@@H](C)O)NC(=O)[C@H](CCCCN)NC(=O)[C@@H](Cc5c[nH]c6ccccc56)NC(=O)[C@H](Cc5ccccc5)NC4=O)nn3)C(C)C)[C@@H](Cl)c3ccccc3)OC(=O)[C@H](CC(C)C)OC(=O)C(C)(C)CNC2=O)cc1Cl [compound 8]
IC50 (human SSTR2): 1.3 nM
half-life at 3 µM [4]: > 24 h
antitumor efficacy (tumor volume) (AtT20 tumors): no therapeutic benefit
MTD (in vivo): ≥ 10 mg/kg
area under the curve (AUC), comparison of 8 with 10 [6]: higher
half-life ([6]; female, mouse, plasma, iv, read-out: circulatory half-life): 1.73 h
IC50 [1, 8]: 8.37 nM
remaining at 6 h, 5 µM (cathepsin B degradation): 90%
cleavage by cathepsin B ([7]; 5 µM compound, 37 °C): readily cleaved
release of cryptophycin-55 glycinate by self-immolation after cleavage ([7]; up to 6 h): no cryptophycin-55 glycinate (3) was found
half-life at 3 µM [5]: 24 h

CC(C)[C@H](NC(=O)CCOCCOCCOCCOCCn1cc(CCC(=O)N[C@H](Cc2ccccc2)C(=O)N[C@H]2CSSC[C@@H](C(=O)N[C@H](CO)[C@@H](C)O)NC(=O)[C@H]([C@@H](C)O)NC(=O)[C@H](CCCCN)NC(=O)[C@@H](Cc3c[nH]c4ccccc34)NC(=O)[C@H](Cc3ccccc3)NC2=O)nn1)C(=O)N[C@@H](CCCNC(N)=O)C(=O)NCC(=O)N1CCC[C@H]1C(=O)NCCCCCCNC(=O)CCCCC[N+]1=C(/C=C/C=C/C=C2N(C)c3ccc4ccccc4c3C2(C)C)C(C)(C)c2c1ccc1ccccc21 [compound 10]
internalization of the conjugate with excess free ligand (AtT20 cells; AtT20 cells, 100-fold excess of free octreotide): could be efficiently competed
internalization of the conjugate (AtT20 cells; SSTR2 expressing AtT20 cells, 1 µM, after 10 min): effective internalization
Binding Affinity (IC50 in nM) (human SSTR2): low nanomolar IC50
internalization of the conjugate (A549 cells): no internalization was observed
accumulation in the tumor (AtT20 xenografts; AtT20 xenografts): preferential accumulation
duration of detection in tumor (AtT20 xenografts; tumors around 50 mm^3): up to seven
